Patent EP4768485A1 (Guangzhou Baiyunshan Pharmaceutical Holdings Co., Ltd. …, priority 2023, dated 2025)
In brackets after ≈: the same amount, converted by molar mass. Like-named read-outs stand apart in the source and are kept apart here.

Key:
EcFabI = EcFabI (Escherichia coli, UniProt P0AEK4); test: FabI enzymatic activity by NADH/NADPH oxidation (fluorescence), EcFabI; format: biochemical; details: 9 nmol/L EcFabI; trans-dodecenoyl-CoA and NADH; pH 6.5
Experimental: (§4) In this test example, the enzymatic activity was evaluated by monitoring the oxidation of cofactor NADH/NADPH using a microplate reader.
(§5) The compound was dissolved in DMSO and added to a 384-well plate using ECHO665. Serial 3-fold or 4-fold dilutions were prepared to generate 10 dose points with two replicates per concentration, ensuring a final DMSO concentration 1% in each reaction well. Then, a FabI protein solution was added, and the protein was prepared in a buffer containing 100 mmol/L PBS, 0.05% Tween-20, and 150 mmol/L NaCl (pH 6.5), so that the final concentrations of SaFabI and EcFabI proteins were 15 nmol/L and 9 nmol/L, respectively. The prepared 5 µL of 15 nmol/L SaFabI and 9 nmol/L EcFabI were added to a 384-well assay plate, and centrifuged at 1000 rpm for 1 minute. Then, the plate was pre-incubated in a temperature-controlled shaker at 30 °C for 20 minutes. Moreover, substrates trans-octenoyl-CoA, NADPH, trans-dodecenoyl-CoA, and NADH were diluted in a buffer containing 100 mmol/L PBS, 0.05% Tween-20, and 15 0 mmol/L NaCl (pH 6.5) respectively, and their concentrations were adjusted to 300 µmol/L, 300 µmol/L, 600 µmol/L, and 150 µmol/L, respectively. For SaFabI, 5 µL of 300 µmol/L trans-octenoyl-CoA and 5 µL of 300 µmol/L NADPH were added to initiate the reaction. Immediately after initiation, the plate was placed into the microplate reader, and fluorescence signals (Ex 340 nm/Em 460 nm) were recorded every 0.5 minutes for at least 10 minutes. Similarly, 5 µL of 600 µmol/L trans-dodecenoyl-CoA and 5 µL of 150 µmol/L NADH were added to initiate reaction of EcFabI. Immediately after initiation, the plate was immediately placed into the microplate reader, and fluorescence signals (Ex 340 nm/Em 460 nm) were recorded every 0.5 minutes for at least 10 minutes. The reaction rate (fluorescence signal per minute) of each well was calculated from the fluorescence values. The inhibitory effect of the compound on the protein was then calculated based on the reaction rate, and the IC50 value for inhibition of enzyme activity by the compound was determined by fitting the data using GraphPad Prism 6 with log (inhibitor) vs. response variable slope model. The fitting equation is: Y=Bottom + (Top-Bottom)/(1+10^((LogIC50-X)*HillSlope)), wherein Y represents the known percentage of residual enzyme activity, and X represents the known Log concentration of the compound.

[1] = tested on: Escherichia coli. ATCC 25923; test: MIC, agar plate two-fold dilution; format: cell-based; details: MHA, 37°C, 16-20 hours; for MIC: Escherichia coli, ATCC25923, read-out: Minimum Inhibitory Concentration MIC, Escherichia coli. ATCC 25923; for Minimum Inhibitory Concentration MIC: Escherichia coli. ATCC 25923
Experimental: (§1) In this test example, the minimum inhibitory concentration (MIC) of the compound was determined.
(§2) The test drug concentration was set to be within a range of 0.008 µg/mL to 128 µg/mL in a two-fold serial dilution using an agar plate two-fold dilution method. The sample was dissolved in DMSO to prepare a 2 mL solution with a concentration of 1.92 mg/mL. The control group was prepared in sterile distilled water to obtain a concentration of 1.92 mg/mL. 1 mL of the prepared drug solution was added to a sterile culture dish, followed by addition of 14 mL of MHA culture medium at approximately 60°C. After thorough mixing, 1 mL of sterilized distilled water was added for two-fold dilution, resulting in a final drug concentration of 64 µg/mL, 32 µg/mL, 16 µg/mL, 8 µg/mL, 4 µg/mL, 2 µg/mL, 1 µg/mL, 0.5 µg/mL, 0.25 µg/mL, 0.125 µg/mL, 0.06 µg/mL, 0.03 µg/mL, 0.015 µg/mL, and 0.008 µg/mL (wherein the final concentrations of samples 2, 4, and 9 were diluted downward starting from 128 µg/mL), and set aside for later use. The prepared bacterial suspension was inoculated onto drug-containing MHA culture medium with a multi-point inoculator, with an inoculation volume of approximately 10^4 CFU per point. A sterile control group (1 mL DMSO + 14 mL MHA culture medium and 1 mL sterile distilled water + 14 mL MHA culture medium) was set up.

[2] = tested on: Acinetobacter baumannii ARLG 1852; test: MIC, agar plate two-fold dilution; format: cell-based
Experimental: as §1, §2

[3] = tested on: Klebsiella pneumoniae ATCC BAA 2472; test: MIC, agar plate two-fold dilution; format: cell-based
Experimental: as §1, §2

SaFabI = SaFabI (Staphylococcus aureus, UniProt Q6GI75); test: FabI enzymatic activity by NADH/NADPH oxidation (fluorescence), SaFabI; details: SaFabI IC50, 15 nmol/L SaFabI; trans-octenoyl-CoA and NADPH; pH 6.5
Chain of SaFabI (Q6GI75 whole entry): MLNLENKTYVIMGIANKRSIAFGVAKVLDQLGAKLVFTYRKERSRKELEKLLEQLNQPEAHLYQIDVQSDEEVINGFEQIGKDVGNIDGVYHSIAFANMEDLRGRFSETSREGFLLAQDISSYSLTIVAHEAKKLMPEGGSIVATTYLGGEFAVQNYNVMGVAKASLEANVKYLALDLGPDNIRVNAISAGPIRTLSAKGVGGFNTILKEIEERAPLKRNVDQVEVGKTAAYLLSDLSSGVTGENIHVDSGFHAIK
Experimental: as §4, §5

MSSA ATCC 29213 = test: MIC, agar plate two-fold dilution; format: cell-based, Staphylococcus aureus; details: MHA, 37°C, 16-20 hours; for MIC: Staphylococcus aureus
Experimental: as §1, §2

MRSA NRS 384 = test: MIC, agar plate two-fold dilution; format: cell-based, Staphylococcus aureus; details: MHA, 37°C, 16-20 hours; for MIC: Staphylococcus aureus
Experimental: as §1, §2

VRSA VRS 1 = test: MIC, agar plate two-fold dilution; format: cell-based, Staphylococcus aureus; details: MHA, 37°C, 16-20 hours; for MIC: Staphylococcus aureus
Experimental: as §1, §2

[4] = tested on: methicillin-resistant S. aureus (NRS384); test: Systemic infection model in mice, in vivo efficacy; parameters: species or system Balb/c mice; details: single-dose oral administration, 0.3, 1.0, 3.0 mg/Kg; vs linezolid 3 mg/Kg and Debio-1450
Experimental: In this test experiment, the in vivo efficacy of the compound in mice was evaluated using a systemic infection model.
Ninety healthy adult male Balb/c mice (purchased from Beijing Vital River Laboratory Animal Technology Co., Ltd. , China) were selected, and divided into 10 groups, including one negative control group (9 mice, inoculated with bacteria and given vehicle), one positive control group (9 mice, vancomycin), one linezolid test group (9 mice), three test groups of high, medium, and low doses (3 ×9 mice) for compound 1a, three test groups of high, medium, and low doses (3 ×9 mice) for Debio-1450, and one test group for Debio-1452 (9 mice). All mice were acclimatized for 3-4 days before testing. The strain inoculated in this test example was methicillin-resistant S. aureus (NRS384), which was administered via tail vein injection at a dose of 1.0 × 10^8 CFU/mouse. The compound was administered 0.5 h post inoculation with the strain. The compound 1a and Debio-1452 were formulated in a vehicle containing 5% DMSO, 30% PEG400, and 65% H2O, while Debio-1450 was formulated in an isotonic glucose solution (freshly prepared) as the vehicle and was administered orally as a single dose. The specific dosing regimen is shown in Table 5: Table 5 Dosing Regimen for Systemic Infection Efficacy Model

[5] = Pharmacokinetic study in rats; format: in vivo, Sprague-Dawley (SD) rats; details: oral gavage
Experimental: In this test experiment, a pharmacokinetic study of the compound in rats was conducted.
Twelve healthy adult female Sprague-Dawley (SD) rats (purchased from Beijing Vital River Laboratory Animal Technology Co., Ltd., China) with an average body weight of about 180-220 g were selected, and divided into four groups (n=3 per group). Two groups were administered via tail vein injection, while the other two groups were administered via oral gavage. Compound 1b was dissolved in a vehicle containing 5% DMSO, 30% PEG400, and 65% H2O, and Debio-1450 was dissolved in physiological saline, both of which were formed into a stable clear solution for later use. Animals were fasted for 12 hours before administration and resumed normal feeding 2 hours post administration. Then, blood samples were collected through the jugular vein at the following time points: 0.083 h, 0.25 h, 0.5 h, 1 h, 2 h, 4 h, 8 h, 24 h (tail vein injection) and 0.25 h, 0.5 h, 1 h, 2 h, 4 h, 8 h, 24 h (oral gavage administration), respectively, with a blood collection volume of about 200-400 µL. Whole blood collected at each time point was immediately transferred into an anticoagulant tube containing K2EDTA, then stored on ice in an insulated container. All samples were centrifuged within 15 minutes at 4600 r/min and 4°C for 5 minutes to separate plasma. The concentration of the compound in the plasma of each rat was determined using LC-MS/MS method, and the pharmacokinetic parameter was calculated from the drug concentration-time profile. Table 4 Oral Pharmacokinetic Parameters of Compound 1b/Debio-1450 In Rats

[6] = tested on: Neisseria gonorrhoeae ATCC49226; test: MIC, antibacterial spectrum; format: cell-based
Experimental: as §2
(§3) Referring to the minimum inhibitory concentration test method mentioned above, the antibacterial spectrum of compound 1b was tested. […] Table 3 Antibacterial Spectrum Testing of Compound 1b MIC (µg/mL)

[7] = tested on: Moraxella catarrhalis ATCC43617; test: MIC, antibacterial spectrum; format: cell-based
Experimental: as §2, §3

[8] = tested on: Staphylococcus hominis ATCC27844; test: MIC, antibacterial spectrum; format: cell-based
Experimental: as §2, §3

[9] = tested on: Acinetobacter baumannii ATCC17979; test: MIC, antibacterial spectrum; format: cell-based
Experimental: as §2, §3

[10] = tested on: Staphylococcus epidermidis ATCC35983; test: MIC, antibacterial spectrum; format: cell-based
Experimental: as §2, §3

[11] = tested on: Staphylococcus haemolyticus CICC23976; test: MIC, antibacterial spectrum; format: cell-based
Experimental: as §2, §3

[12] = tested on: Pseudomonas aeruginosa ATCC12055; test: MIC, antibacterial spectrum; format: cell-based
Experimental: as §2, §3

[13] = tested on: Salmonella Typhi CMCC12055; test: MIC, antibacterial spectrum; format: cell-based; details: Salmonella enterica
Experimental: as §2, §3

[14] = tested on: Klebsiella pneumoniae ATCC2055; test: MIC, antibacterial spectrum; format: cell-based
Experimental: as §2, §3

[15] = tested on: Enterobacter cloacae ATCC13047; test: MIC, antibacterial spectrum; format: cell-based
Experimental: as §2, §3

[16] = tested on: Enterococcus faecalis ATCC51299; test: MIC, antibacterial spectrum; format: cell-based
Experimental: as §2, §3

[17] = tested on: Haemophilus influenzae ATCC29213; test: MIC, antibacterial spectrum; format: cell-based
Experimental: as §2, §3

Escherichia coli. = test: MIC, agar plate two-fold dilution; format: cell-based; details: ATCC25923; Escherichia coli. ATCC 25923; MHA, 37°C, 16-20 hours; read-out: Minimum Inhibitory Concentration MIC
Experimental: as §1, §2

[18] = Acinetobacter baumannii, ARLG1852, read-out: Minimum Inhibitory Concentration MIC
[19] = Klebsiella pneumoniae, BAA2472, read-out: Minimum Inhibitory Concentration MIC
[20] = ATCC29213|MSSA, read-out: Minimum Inhibitory Concentration MIC, MSSA ATCC 29213
[21] = MRSA|NRS384, read-out: Minimum Inhibitory Concentration MIC, MRSA NRS 384
[22] = VRSA, read-out: Minimum Inhibitory Concentration MIC, VRSA VRS 1
[23] = Acinetobacter baumannii ARLG 1852, MHA, 37°C, 16-20 hours
[24] = Klebsiella pneumoniae ATCC BAA 2472, MHA, 37°C, 16-20 hours
[25] = female, Sprague-Dawley, rat, in vivo, 15 mg/Kg, plasma
[26] = female, Sprague-Dawley, rat, 10 mg/Kg, plasma

Chain of EcFabI (P0AEK4 whole entry): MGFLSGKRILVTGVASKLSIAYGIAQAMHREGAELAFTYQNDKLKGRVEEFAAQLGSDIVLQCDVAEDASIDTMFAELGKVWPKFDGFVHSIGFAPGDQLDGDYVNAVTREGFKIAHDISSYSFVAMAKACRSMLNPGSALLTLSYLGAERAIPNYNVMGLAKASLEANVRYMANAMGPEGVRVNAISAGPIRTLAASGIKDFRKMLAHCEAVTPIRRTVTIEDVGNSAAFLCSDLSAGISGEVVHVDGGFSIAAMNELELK

SMILES | IC50 (EcFabI) [nM] | MIC [1] [µg/mL] | MIC [2, 18] [µg/mL] | MIC [3, 19] [µg/mL] | IC50 (SaFabI) [nM] | MIC (MSSA ATCC 29213; [20]) [ng/mL] | MIC (MRSA NRS 384; [21]) [ng/mL] | Minimum Inhibitory Concentration MIC [1] [µg/mL] | Minimum Inhibitory Concentration MIC [2, 23] [µg/mL] | Minimum Inhibitory Concentration MIC [3, 24] [µg/mL] | Minimum Inhibitory Concentration MIC (MSSA ATCC 29213; MSSA ATCC 29213) [µg/mL] | Minimum Inhibitory Concentration MIC (MRSA NRS 384; MRSA NRS 384) [ng/mL] | Minimum Inhibitory Concentration MIC (VRSA VRS 1; VRSA VRS 1) [µg/mL] | also measured
Cc1c(CN(C)C(=O)/C=C/c2cnc3c(c2)C2CC2(N)C(=O)N3)oc2c(C3CC3)cccc12 (single isomer, unassigned) [Compound 2a] | 6 | 8 (≈ 18.1 µM) | > 32 | 32 (≈ 72.3 µM) | 10 | < 8 | < 8 |  |  |  |  |  |  | MIC (VRSA VRS 1; [22]): 0.06 µg/mL (≈ 0.136 µM)
Cc1c(CN(C)C(=O)/C=C/c2cnc3c(c2)C2CC2(N)C(=O)N3)oc2c(C3CC3)cccc12 (single isomer, unassigned) [Compound 2b] | 13 |  |  |  | 12 |  |  | >16 | >32 | 32 | 0.016 | <8 | 0.06 | 
Cc1c(CN(C)C(=O)/C=C/c2cnc3c(c2)C2CC2(N)C(=O)N3)oc2c(C)cccc12 (stereo not drawn) [Compound 1a] | 4 | 4 (≈ 9.6 µM) | > 32 | 16 (≈ 38.4 µM) | 5 | < 8 | < 8 |  |  |  |  |  | 0.25 | efficacy compared with the reference compounds [4]: markedly superior efficacy to linezolid and better efficacy than Debio-1450
Cc1c(CN(C)C(=O)/C=C/c2cnc3c(c2)C2CC2(N)C(=O)N3)oc2c(C)cccc12 (stereo not drawn) [Compound 1b] | 5 |  |  |  | 12 |  |  | 4 | >32 | 16 | <0.008 | <8 | 0.12 | Tmax [5, 25]: 1.5 h; half-life [5, 25]: 154 min; F ([5]; 15 mg/Kg vs tail vein injection): 110%; MIC [6]: 8 µg/mL (≈ 19.2 µM); antibacterial activity (in words) ([7]; Moraxella catarrhalis): excellent antibacterial activity; MIC ([7]; Moraxella catarrhalis ATCC43617): < 0.06 µg/mL; antibacterial activity (in words) ([8]; Staphylococcus hominis): excellent antibacterial activity; MIC ([8]; Staphylococcus hominis ATCC27844): < 0.06 µg/mL; MIC [9]: 32 µg/mL (≈ 76.8 µM); antibacterial activity (in words) ([10]; Staphylococcus epidermidis): excellent antibacterial activity; MIC ([10]; Staphylococcus epidermidis ATCC35983): < 0.06 µg/mL; MIC [11]: < 0.06 µg/mL; MIC [12]: > 64 µg/mL; MIC [13]: 4 µg/mL (≈ 9.6 µM); MIC [14]: 8 µg/mL (≈ 19.2 µM); MIC [15]: 8 µg/mL (≈ 19.2 µM); MIC [16]: > 64 µg/mL; antibacterial activity (in words) [17]: good antibacterial activity; MIC ([17]; ATCC29213): 0.25 µg/mL (≈ 0.6 µM)
Cc1c(CN(C)C(=O)/C=C/c2cnc3c(c2)C2CC2(N)C(=O)N3)oc2ccccc12 (stereo not drawn) [Compound 3a] | 7 | 8 (≈ 19.9 µM) | > 32 | > 32 | 10 | 30 (≈ 0.0745 µM) | 30 (≈ 0.0745 µM) |  |  |  |  |  |  | MIC (VRSA VRS 1; [22]): 0.5 µg/mL (≈ 1.24 µM)
Cc1c(CN(C)C(=O)/C=C/c2cnc3c(c2)C2CC2(N)C(=O)N3)oc2ccccc12 (stereo not drawn) [Compound 3b] |  |  |  |  |  |  |  | 8 | >32 | >32 | 0.016 | 16 | 0.25 | 
Cc1c(CN(C)C(=O)/C=C/c2cnc3c(c2)CCC(=O)N3COP(=O)(O)O)oc2ccccc12 [Debio-1450] |  |  |  |  |  |  |  |  |  |  |  |  |  | Cmax [5, 26]: 2210 ng/mL; Tmax [5, 26]: 0.67 h; half-life [5, 26]: 252 min; F ([5]; 10 mg/Kg vs tail vein injection): 97%
Cc1c(CN(C)C(=O)/C=C/c2cnc3c(c2)CCC(=O)N3)oc2ccccc12 [Debio-1452, reference compound] | 3 |  |  |  | 2 |  |  |  |  |  |  |  |  | MIC ([2]; ARLG1852, Acinetobacter baumannii ARLG 1852, MHA, 37°C, 16-20 hours, read-out: Minimum Inhibitory Concentration MIC): > 8 µg/mL; MIC (Escherichia coli.): 4 µg/mL (≈ 10.7 µM); MIC ([3]; BAA2472, Klebsiella pneumoniae ATCC BAA 2472, MHA, 37°C, 16-20 hours, read-out: Minimum Inhibitory Concentration MIC): > 8 µg/mL; MIC (MSSA ATCC 29213; MSSA ATCC 29213, read-out: Minimum Inhibitory Concentration MIC): < 8 ng/mL; MIC (MRSA NRS 384; MRSA NRS 384, read-out: Minimum Inhibitory Concentration MIC): < 8 ng/mL; MIC (VRSA VRS 1; VRSA VRS 1, read-out: Minimum Inhibitory Concentration MIC): 0.12 µg/mL (≈ 0.32 µM)
